Legend:
Assay type in all cases: cell-based, human
ALAS1 = assay: qRT-PCR analysis of ALAS1 expression in SKCO1 cells
SH-SY5Y cells = assay: Heme content in SHSY-5Y cells
Source text: (A) Frequency (%) of patient tumors with overexpression of FLVCR1 compared to their matched normal tissues across multiple cancer types. The number of patients showing tumor FLVCR1 overexpression relative to the total number of patients examined are indicated in the plot. Data derive from the BioXpress (Wan et al., 2015). […] Transcript abundance, normalized to beta-actin mRNA expression (for SHSY-5Y cells) or to 18s mRNA (for BTECs), is expressed as a fold increase over a calibrator sample. Data represent mean±SEM, n=4. For statistical analyses, an unpaired Student's t-test was used; ***p<0.001. (C, E) Western blot analysis of FLVCR1a expression in SHSY-5Y cells (C) and BTECs (E). Vinculin expression is shown as a loading control. Band intensities were measured by densitometry and normalized to vinculin expression. […] Values are expressed as pmol heme/mg protein. […] Values are expressed as pmol heme/mg protein. […]
(A) Heme content in SHSY5Y cells non-treated (NT) or treated with 5 mM ALA for 15 hours. Values are expressed as pmol heme/mg protein. […] Transcript abundance, normalized to beta-actin mRNA expression, is expressed as a fold increase over a calibrator sample. […] Transcript abundance, normalized to beta-actin mRNA expression, is expressed as a fold increase over a calibrator sample. […] Band intensities were measured by densitometry and normalized to beta-actin expression. […]

Caco2 cells = assay: TCA cycle enzymes activities in Caco2 cells; conditions: FLVCR1a knockdown vs scramble shRNA Caco2 cells
Source text: TCA cycle flux is reported in the centre of the figure and expressed as pmol CO2/h/mg protein. Data represent mean±SEM, n=3. For statistical analyses, an unpaired Student's t-test was used. **=p<0.01. Moreover, TCA cycle enzymes activities are reported in boxes and expressed as mU/mg mitochondrial proteins. Data represent mean±SEM, n=3. For statistical analyses, an unpaired Student's t-test was used; *=p<0.05, ***=p<0.001. […] Results are expressed as pmol CO2/h/mg protein. Data represent mean±SEM, n=3. For statistical analyses, an unpaired Student's t-test was used; *=p<0.05, **=p<0.01. […]
The enzymatic activities of citrate synthase, α-ketoglutarate dehydrogenase, succinate dehydrogenase and malate dehydrogenase were measured on 10 μg mitochondrial proteins using the Citrate Synthase Assay Kit (Sigma Aldrich, St. Louis, MO USA, catalog n° MAK193), Alpha Ketoglutarate (alpha KG) Assay Kit (Abcam, Cambridge, UK, catalog n° ab83431), Malate Dehydrogenase Assay Kit (Sigma Aldrich, St. Louis, MO USA, catalog n° MAK196), Succinate Dehydrogenase Activity Colorimetric Assay Kit (BioVision, Milpitas, CA USA, catalog n° K660), as per manufacturer's instructions. Results were expressed as mU/mg mitochondrial proteins.

Row | Compound | ALAS1 mRNA levels (ALAS1; SKCO1 cells, 5 mM ALA for 24 hours vs untreated) | heme content inside the cells (SH-SY5Y cells; 5 mM ALA for 15 hours vs non-treated) | TCA cycle enzymes activity (citrate synthase, α-ketoglutarate dehydrogenase, succinate dehydrogenase, malate dehydrogenase) (Caco2 cells) | ALAS1 expression (qRT-PCR) (ALAS1; FLVCR1a-silenced vs scramble shRNA SKCO1 cells) | heme accumulation upon stimulation of de-novo heme biosynthesis (SH-SY5Y cells; FLVCR1a-silenced vs scramble shRNA, 5 mM 5-ALA for 15 hours)
1 | Cl.NCC(=O)CCC(=O)O [5-ALA, 5-Aminolevulinic acid hydrochloride] | decreased | promoted heme accumulation inside the cells | – | – | –
2 | FLVCR1a shRNA: shRNA specifically down-regulating FLVCR1a without targeting FLVCR1b; pLKO.1 lentiviral clone TRCN0000059599, antisense SEQ ID No.: 2 (antisense TTGCTAATGATGCTGTACTGG; sense CCAGTACAGCATCATTAGCAA) | – | – | enhanced activity | reduced ALAS1 expression | higher heme accumulation than controls
